Measured values taken from US9163018B2, “Method of treatment of age-related macular degeneration (AMD)” (Prana Biotechnology Limited, priority 2006, dated 2015).

Tests used:
Aβ 1-42 = target: T1, Aβ 1-42 (Homo sapiens, UniProt P05067); experiment: Fluorometric H2O2 assay (inhibition of Abeta H2O2 production); assay type: biochemical; conditions: concentration required to inhibit 50% of Abeta H2O2 production; read-out: H2O2 IC50
T1 construct: The reaction solutions contained Aβ 1-42 at concentrations
In short: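 Reactions in PBS pH 7.4 at 37 C for 60 min, containing Aβ, copper and test compound. H2O2 output read as fluorescence of HRP-coupled deacetylated DCF. Fluorescence converted to H2O2 concentration via H2O2 standards.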

[1] = test system: M17 human neuroblastoma cells; experiment: Cytotoxicity, M17 human neuroblastoma cells; assay type: cell-based; conditions: for Cytotox (% viable) M17 cells at 1 μM: 1 μM test compound; for Cytotox (% viable) M17 cells at 10 μM: 10 μM test compound
Method: Assay 3. MTS Assay for Cell Viability
Cell viability is determined using the MTS assay. Culture medium is replaced with fresh neurobasal medium plus B27 supplements minus antioxidants. 1/10th volume MTS solution (Cell Titre 96 Aqueous One, Promega Corporation) and incubated at 37° C., 2 hrs. 200 microliter aliquots are measured with a spectrophotometer at 560 nm.

[2] = test system: dityrosine oligomerization; experiment: CuTy: inhibition of dityrosine oligomerization; assay type: biochemical; conditions: referenced to in-house standard (set as 100% inhibition)
[3] = Mice plasma concentration after oral dose; assay type: in vivo; conditions: for Mice plasma concentration: 30 min to 4 h after single or repeat oral dose of 30 mg/kg
[4] = Toxicity, visual observations in mice; conditions: duration and visual observations
[5] = test system: primary cortical neuronal cultured cells; experiment: Test compound cytotoxicity, MTS assay, primary cortical neuronal cultures; assay type: cell-based, mouse; conditions: for Cytotox (% viable) Neuronal cells at 1 μM: 1 μM test compound; for Cytotox (% viable) Neuronal cells at 10 μM: 10 μM test compound
In short: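 Primary cortical neurons were cultured five days in Neurobasal/B27, then exposed on day six to compounds (from 2.5 mM DMSO stocks) in medium minus antioxidants, in triplicate for 4 days at 37° C. Viability was measured by MTS, 2 h at 37° C, absorbance at 560 nm.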

[6] = target: T2, Abeta:Zn (25:50 μM) Synthetic Aggregations (Homo sapiens, UniProt P05067); experiment: Disaggregation of Abeta:Zn synthetic aggregates (ThT fluorescence); assay type: biochemical; conditions: for Disaggregation % Aggregate reduction at 5 μM: 5 μM test compound; for EC50: Abeta:Zn 25:50 μM aggregates
T2 construct: PB Compound Mediated Dissolution of Aggregated Abeta 1-42; purchased Keck Laboratory, Yale University School of Medicine
In short: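 ThT signal (excitation 450 nm, emission 480 nm) measured after compounds at final 1, 5, 10, 25 and 50 μM acted 2 h at 37 degrees on preformed aggregates. Those aggregates came from 24 h rotating incubation of 25 μM Abeta1-42, 50 μM ZnCl2 and 50 μM ThT in PBS pH 6.6.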

[7] = test system: Abeta in extract of post-mortem human AD brain tissue; experiment: BAS: human brain amyloid solubilization assay; assay type: biochemical; conditions: max effect across the concentration range, referenced to baseline PBS
In short: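 Plaque-bearing post-mortem AD cortex homogenised in ice-cold PBS pH 7.4; soluble Aβ in 100,000×g supernatant, insoluble Aβ from resuspended pellet. Fractions run on Tris-Tricine SDS-PAGE, immunoblotted with W02, densitometry against synthetic Aβ40 standards.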

Aβ deposits = conditions: 9 weeks; for Tg Mice % difference from control in Amyloid plaque abundance / Tg Mice % difference from control in insoluble brain amyloid burden / Tg Mice % difference from control in soluble brain amyloid burden: daily oral gavage 30 mg/kg, 13-14 months old transgenic mice

T2 sequence (P05067 672-713 limits assumed): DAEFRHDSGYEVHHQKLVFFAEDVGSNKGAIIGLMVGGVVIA
T1 sequence (P05067 672-713 limits assumed): as above

Compound	IC50 (Aβ 1-42) [nM]	Cytotox (% viable) M17 cells at 1 μM [1] [%]	Cytotox (% viable) M17 cells at 10 μM [1] [%]	CuTy % inhibition of dityrosine oligomerization [2]	Mice plasma concentration [3]	Toxicity at 30 mg/kg [4]	Cytotox (% viable) Neuronal cells at 1 μM [5] [%]	Cytotox (% viable) Neuronal cells at 10 μM [5] [%]	Disaggregation % Aggregate reduction at 5 μM [6] [%]	EC50 [6] [nM]	Mice plasma concentration at 10 mg/kg ([3]; oral dose 10 mg/kg)	Toxicity at 10 mg/kg ([4]; 10 mg/kg)	BAS max effect [7] [%]	Tg Mice % difference from control in Amyloid plaque abundance (Aβ deposits)	Tg Mice % difference from control in insoluble brain amyloid burden (Aβ deposits)	Tg Mice % difference from control in soluble brain amyloid burden (Aβ deposits)	Tg Mice Amyloid plaque abundance at 3 mg/kg (Aβ deposits; daily oral gavage 3 mg/kg)	Tg Mice soluble brain amyloid burden at 3 mg/kg (Aβ deposits; daily oral gavage 3 mg/kg)	Tg Mice % difference in insoluble brain amyloid burden at 3 mg/kg (Aβ deposits; daily oral gavage 3 mg/kg, ex-outlier) [%]
O=c1c2c(Cl)cc(Cl)c(O)c2ncn1-c1ccccn1 [PB 1242]	280	102.7	102.6	CuTy: 50% inhibition	Up to 144.2 ng/ mL ng/mL	10 days, none													
O=c1c2c(Cl)cc(Cl)c(O)c2ncn1Cc1nccs1 [PB 1254]	250	106.6	106	CuTy: 90% inhibition	Up tp 441.4 ng/ mL ng/mL	10 days, none													
O=c1c2c(Cl)cc(Cl)c(O)c2ncn1Cc1cccc(Cn2cnc3c(O)c(Cl)cc(Cl)c3c2=O)n1 [PB 1101]	4100	94.9	26.8	10% inhibition		10 days, none	89	67	45										
O=c1c2c(Cl)cc(Cl)c(O)c2ncn1Cc1nc2ccccc2s1 [PB 1257]	690	111.1	80.9	CuTy: 60% inhibition	Up to 166.1 ng/ mL ng/mL	10 days, none													
Br.CN(C)Cc1nc2c(O)c(Cl)cc(Cl)c2c(=O)[nH]1 [PB 1147]		94.7	100.3	CuTy: 100% inhibition	Up tp 642.6 ng/ mL ng/mL	10 days, none			12.5	> 20000									
O=C(O)Cn1cnc2c(O)c(Cl)cc(Cl)c2c1=O [PB 1249]	490	105	100.7	CuTy: 100% inhibition	Up to 4830.2 ng/ml ng/mL	10 days, none													
Br.CCN(CC)Cc1nc2c(O)c(Cl)cc(Cl)c2c(=O)[nH]1 [PB 1128]		106.5	99.1	CuTy: 100% inhibition	Up to 2289 ng/ mL ng/mL	10 days, none	100.6	93.7	41										
CCc1c(O)c(=O)ccn1CC.Cl [PB 1270]	> 10000			CuTy: 80% inhibition															
O=c1c2c(Cl)cc(Cl)c(O)c2ncn1Nc1ccc(F)cc1F [PB-1100]		108.1	80.5	CuTy: 10% inhibition	Up to 1,130.6 ng/mL	10 days, none	100	92	42										
O=C1NC(=O)c2cc(-n3cnc4c(O)c(Cl)cc(Cl)c4c3=O)ccc21 [PB 1247]	560	101.2	110.8	CuTy: 150% inhibition		10 days, none													
O=c1c2c(Cl)cc(I)c(O)c2ncn1CC1CC1 [PB 1140]	360	92.4	98.2						64	3500	At 10 mg/kg: Up to 2315 ng/ ml ng/mL	At 10 mg/kg 10 days, none							
Oc1c(C2CC2)ncc2cccnc12 [PB 1073]	520				Up to 350 ng/ mL in mice ng/mL	6 days, none	100	98	50	4700									
CCNCc1ccc2c(Cl)cc(Cl)c(O)c2n1.Cl [PB 1051]	380	78.3	44		Up to 403 ng/ mL ng/mL	10 days, none	87	56	22.3	> 20000			270	−39%	−21%	slight increase			
CCCc1cnc2c(O)c(I)ccn2c1=O [PB 1151]	330	80.8	47.6		Up to 11742 ng/ ml ng/mL				57	5600							No change	No change	−24
CC(C)Cn1c(CN(C)C)nc2c(O)c(Cl)cc(Cl)c2c1=O.Cl [PB 1271]	170	104.4	61.5	CuTy: 50% inhibition															
O=c1c2c(Cl)cc(Cl)c(O)c2ncn1CCN1CCCC1 [PB 1075]		103.6	101.3		Up to 520 ng/ mL in mice ng/mL	14 days, 1 of 4 death	104	91	0	> 20000				−23%	Increase	decrease			
CCC(C)n1cnc2c(O)c(Cl)cc(Cl)c2c1=O (stereo not shown) [PB 1112]		99.2	68.6	CuTy: 125% inhibition	Up to 2949 ng/ mL ng/mL	10 days, none	94	67	46.4	> 20000									
CCCn1cnc2c(O)c(I)ccc2c1=S [PB 1165]	890	96.7	107.1		Up tp 1593 ng/ ml ng/mL	10 days, none			52	4700				Decrease	No change	No change			
O=c1c2ccc(I)c(O)c2ncn1Cc1ccccn1 [PB 1122]	520	97.5	79.5		Up to 1538 ng/ mL ng/mL	10 days, none			62.4	660									
Oc1c(Cl)cc(Cl)c2ccc(-c3ccccn3)nc12 [PB 1052]	640						55	31	62.8	3300			212	Decrease insol, Decrease sol, Decrease plaque	Decrease insol, Decrease sol, Decrease plaque	Decrease insol, Decrease sol, Decrease plaque			
